Results published in ChEMBL document CHEMBL4414572, “Curcumin analogues and their hybrid molecules as multifunctional drugs” (Eur J Med Chem, 2019).
pIC50: −log10 of the molar value. Converted amounts (≈) assume the structure as drawn. One block for each compound: values may come before it.

Key:
[1] = Antioxidant activity assessed as DPPH free radical scavenging activity; type: functional
[2] = tested on: MDA-MB-231; experiment: Antiproliferative activity against human MDA-MB-231 cells 24 to 48 hrs by MTT assay; type: functional, cell-based; details: for IC50: mda-mb-231
[3] = Antioxidant activity assessed as DPPH free radical scavenging activity after 30 mins; type: functional
[4] = tested on: MCF7; experiment: Cytotoxicity against human MCF7 cells assessed as reduction in cell viability by MTT assay; type: functional, cell-based
[5] = tested on: PANC-1; experiment: Cytotoxicity against human PANC1 cells assessed as reduction in cell viability by MTT assay; type: functional, cell-based
[6] = tested on: MIA PaCa-2; experiment: Cytotoxicity against human MIAPaCa2 cells assessed as reduction in cell viability by MTT assay; type: functional, cell-based
[7] = tested on: PC-3; experiment: Cytotoxicity against human PC3 cells assessed as reduction in cell viability by MTT assay; type: functional, cell-based
[8] = tested on: SW480; experiment: Cytotoxicity against human SW480 cells assessed as reduction in cell viability after 24 to 48 hrs by MTT assay; type: functional, cell-based
[9] = tested on: LS174T; experiment: Cytotoxicity against human LS174T cells assessed as reduction in cell viability by SRB assay; type: functional, cell-based
[10] = tested on: LS174T; experiment: Cytotoxicity against human LS174T cells assessed as reduction in cell viability in presence of PTX by SRB assay relative to control; type: functional
[11] = tested on: K562; experiment: Cytotoxicity against human K562 cells assessed as reduction in cell viability after 48 hrs by SRB assay; type: functional, cell-based; details: K562, 48 h
[12] = tested on: HCT-15; experiment: Cytotoxicity against human HCT15 cells assessed as reduction in cell viability after 48 hrs by SRB assay; type: functional, cell-based; details: HCT-15, 48 h
[13] = tested on: Bacillus subtilis; experiment: Antibacterial activity against Bacillus subtilis after 24 hrs by twofold serial dilution technique; type: functional
[14] = tested on: RAW264.7; experiment: Anti-inflammatory activity in mouse RAW264.7 cells assessed as inhibition of LPS/IFN-gamma-induced nitric oxide production preincubated for 24 hrs followed by LPS/IFN-gamma-stimulation and measured after 17 hrs by Griess assay; type: functional, cell-based
[15] = tested on: A549; experiment: Cytotoxicity against human A549 cells assessed as reduction in cell viability after 24 hrs by MTT assay; type: functional, cell-based; details: A549, 24 h
[16] = tested on: SGC-7901; experiment: Cytotoxicity against human SGC7901 cells assessed as reduction in cell viability after 24 hrs by MTT assay; type: functional, cell-based; details: SGC-7901, 24 h
[17] = tested on: HepG2; experiment: Cytotoxicity against human HepG2 cells assessed as reduction in cell viability after 24 hrs by MTT assay; type: functional, cell-based; details: HepG2, 24 h
[18] = tested on: HeLa; experiment: Cytotoxicity against human HeLa cells assessed as reduction in cell viability after 24 hrs by MTT assay; type: functional, cell-based
[19] = tested on: K562; experiment: Cytotoxicity against human K562 cells assessed as reduction in cell viability after 24 hrs by MTT assay; type: functional, cell-based; details: K562, 24 h
[20] = tested on: THP-1; experiment: Cytotoxicity against human THP1 cells assessed as reduction in cell viability after 24 hrs by MTT assay; type: functional, cell-based; details: THP-1, 24 h
[21] = tested on: L02; experiment: Cytotoxicity against human LO2 cells assessed as reduction in cell viability after 24 hrs by MTT assay; type: cell-based; details: L02, 24 h
[22] = Cytotoxicity against human […] cells assessed as reduction in cell viability; type: functional, cell-based
[23] = tested on: MM1.S; experiment: Cytotoxicity against human MM1S cells assessed as reduction in cell viability; type: functional, cell-based
[24] = tested on: U-266; experiment: Cytotoxicity against human U266 cells assessed as reduction in cell viability; type: functional, cell-based
[25] = tested on: LS174T; experiment: Cytotoxicity against human LS174T cells assessed as reduction in cell viability in presence of PTX by SRB assay; type: functional, cell-based
[26] = Inhibition of NFkappaB (unknown origin); design: species or system Homo sapiens

Compound: CN1C/C(=C\c2ccc(N(C)C)cc2[N+](=O)[O-])C(=NO)/C(=C/c2ccc(N(C)C)cc2[N+](=O)[O-])C1
- pIC50 [4]: 7.70
- pIC50 [5]: 7.70
- pIC50 [6]: 7.70
- pIC50 [7]: 7.70

Compound: O=C(/C=C/c1c[nH]c2ccccc12)CC(=O)/C=C/c1c[nH]c2ccccc12
- pIC50 [8]: 4.77 to 4.82

Compound: O=C1/C(=C/c2cn(-c3ccccc3)nc2-c2ccccc2)CN(Cc2ccccc2)C/C1=C\c1cn(-c2ccccc2)nc1-c1ccccc1
- IC50 [2]: 45.1 ppm

Compound: COc1cc(/C=C/C=C2N=C(/C=C/c3ccccc3)NC\2=O)ccc1O
- pIC50 [9]: 5.12
- Activity [10]: 2.5 - 45.7%

Compound: COc1cc(CCc2cc(CCc3ccc(OC(C)=O)c(OC)c3)on2)ccc1OC(C)=O
- pIC50 [11]: 5.52
- pIC50 [12]: 5.55

Compound: CCOC(OCC)c1ccc(/C=C2\CN(C)C/C(=C\c3ccc(C(OCC)OCC)cc3)C2=NO)cc1
- pIC50 [4]: 7.52

Compound: O=C1/C(=C/c2cc(/N=C/c3ccc(O)c(O)c3O)ccc2F)CNC/C1=C\c1cc(/N=C/c2ccc(O)c(O)c2O)ccc1F
- pIC50 [15]: > 5.70
- pIC50 [16]: > 5.70
- pIC50 [17]: > 5.70
- pIC50 [18]: > 5.70
- pIC50 [19]: > 5.70
- pIC50 [20]: > 5.70
- pIC50 [21]: > 5.70

Compound: O=C1NC(/C=C/c2ccccc2)=NC/1=C\C=C\c1ccccc1
- pIC50 [9]: 5.05

Compound: COc1cc(/C=C/C(=O)/C=C/c2ccc3c(c2)C(=O)N(C2CCC(=O)NC2=O)C3=O)ccc1O (stereo not given)
- pIC50 [22]: 5.25
- pIC50 [23]: 5.12
- pIC50 [24]: 5.63

Compound: COc1cc(/C=C/C(=O)C(=Cc2ccc3c(c2)C(=O)N(C2CCC(=O)NC2=O)C3=O)C(=O)/C=C/c2ccc(O)c(OC)c2)ccc1O (stereo not given)
- pIC50 [22]: 5.34
- pIC50 [23]: 5.19
- pIC50 [24]: 4.02

Compound: CCCNC(=O)/C(=C/C=C/c1ccccc1)NC(=O)/C=C/c1ccccc1
- pIC50 [25]: 8.42
- Activity [10]: 16.2%

Continued, values first:

- IC50 [1]: 0.253 µg/mL (≈ 0.52 µM)
Compound: COc1cc(/C=C/C(=O)C(=NNc2ccc(C)cc2)C(=O)/C=C/c2ccc(O)c(OC)c2)ccc1O

- IC50 [2]: 32.4 ppm
Compound: O=C1/C(=C/c2cn(-c3ccccc3)nc2-c2ccc([N+](=O)[O-])cc2)CCCC/C1=C\c1cn(-c2ccccc2)nc1-c1ccc([N+](=O)[O-])cc1

- pIC50 [3]: 1.98
Compound: O=C1/C(=C/c2cn(-c3ccccc3)nc2-c2ccccc2)CNC/C1=C\c1cn(-c2ccccc2)nc1-c1ccccc1

- IC50 [2]: 39.9 ppm
- pIC50 [3]: 2.19
Compound: COc1ccc(-c2nn(-c3ccccc3)cc2/C=C2\CN(C)C/C(=C\c3cn(-c4ccccc4)nc3-c3ccc(OC)cc3)C2=O)cc1

- MIC [13]: 3.12 µg/mL (≈ 5.61 µM)
Compound: CCN1N=C(C(=NNc2ccccc2)C2=NN(CC)C(c3ccc(O)c(OC)c3)C2)CC1c1ccc(O)c(OC)c1 (stereo not given)

- pIC50 [14]: 5.02
Compound: O=C(/C=C(O)/C=C/c1ccc(O)c(O)c1)c1ccccc1O

- IC50 [2]: 20.5 ppm
Compound: CN1C/C(=C\c2cn(-c3ccccc3)nc2-c2ccccc2)C(=O)/C(=C/c2cn(-c3ccccc3)nc2-c2ccccc2)C1

- IC50 [2]: 50.4 ppm
Compound: O=C(/C=C/c1cn(-c2ccccc2)nc1-c1ccc([N+](=O)[O-])cc1)/C=C/c1cn(-c2ccccc2)nc1-c1ccc([N+](=O)[O-])cc1

- pIC50 ([2]; Homo sapiens, MDA-MB-231): 4.94
Compound: O=C1/C(=C/c2cn(-c3ccccc3)nc2-c2ccccc2)CCCC/C1=C\c1cn(-c2ccccc2)nc1-c1ccccc1

- IC50 [2]: 75.8 ppm
Compound: COc1ccc(-c2nn(-c3ccccc3)cc2/C=C2\CCCC/C(=C\c3cn(-c4ccccc4)nc3-c3ccc(OC)cc3)C2=O)cc1

- pIC50 [14]: 5.31
Compound: O=C(/C=C(O)/C=C/c1ccc(O)c(O)c1)c1cc(Cl)ccc1O

- IC50 [26]: 2.8 µg/mL (≈ 5.99 µM)
Compound: C=CC(=O)NC(c1ccccc1)C(C(=O)/C=C/c1cccc(O)c1)C(=O)/C=C/c1cccc(O)c1 (stereo not given)
